Assay results published in patent US20180008629A1, “Compositions and Methods for Treating NLRP3 Inflammasome-Related Diseases and Disorders” (priority 2015, published 2018).
One block for each molecule: values may come before it.

Tests used:
[1] = target: NLRP3 inflammasome (Mus musculus, UniProt Q8R4B8); test: NLRP3 inflammasome activation in LPS primed BMDMs (caspase-1 / IL-1β immunoblot); format: cell-based; parameters: endogenous in cells; host or cells: mouse bone marrow derived macrophages (A1); settings: for effect on BHB's suppressive effects on ATP-induced NLRP3 inflammasome activation: co-treatment with BHB; for ATP-induced NLRP3 activation: BMDMs stimulated with LPS and ATP, caspase-1 immunoblot (FIG. 1B); for induction of caspase-1 cleavage by ROS damage: rotenone (10 μM) or hydrogen peroxide
Procedure: All steps were performed using sterile technique. Femurs were collected in RPMI (Life Technologies, Grand Island, N.Y.)+5% FBS (R5; Omega Scientific, Tarzana, Calif.). Both ends of the femur were then cut and the femur was flushed with R5. The bone marrow was centrifuge at 450 g for 5 min, the supernatant was decanted and red blood cells were lysed using ACK lysis buffer (Quality Biological, Gaithersburg, Md.). After neutralization with R5, bone marrow cells were centrifuged, resuspended in 10 ml of R5 and placed into a 6 well plate. Non-adherent cells were collected the following morning. The non-adherent cells were resuspended at 4×10^6 cells/ml in media consisting of 10 ml supernatant of non-adherent cells, 7.2 ml L929 conditioned media, 6.8 ml R5 and MCSF (long/ml; R&D Systems, Minneapolis, Minn.). An additional 2 ml of fresh media was added 4 d after isolation. Non-adherent cells were collected on day 7, separated by density gradient separation using Fico/Lite (Atlanta Biologicals, Flowery Branch, Ga.) and mononuclear cells were collected. Cells were rinsed twice with Dulbecco's PBS+2% FBS, and resuspended at 1×10^6 cells/ml. Cells were treated with ultrapure LPS (Invivogen, San Diego, Calif.) alone or in combination with 5 mM ATP (Sigma, St. Louis, Mo.) or 200 μM palmitate-BSA (Sigma). The BMDMs were also primed with ultrapure lipid A (10 μg/ml; Invivogen, San Diego, Calif.), lipoteichoic acid (10 μg/ml; Invivogen), or Pam3-CSK4 (10 μg/ml; Invivogen) for 4 hour and stimulated with various NLRP3 activators (ATP 5 mM; Sigma, MSU 250 ug/ml; Invivogen, Silica; 200 ug/ml; Invivogen, sodium palmitate; 200 μM; Sigma, ceramide C6 80 μg/ml; Cayman, and sphingosine 40 μM; Cayman, Ann Arbor, Mich.) for 1 hour together with D-BHB or L-(BHB) at indicated concentration. The cell supernatants and cell lysates were collected 1 h after BHB treatment and analyzed for caspase-1 and IL-1β.
The BMDM cell lysates were prepared using RIPA buffer and immediately snap frozen in liquid nitrogen. Samples were left on ice for 1 hour with vortexing every 10 min. Samples were then centrifuge at 14,000 g for 15 min, the supernatant was collected and the protein concentration was determined using the DC Protein Assay (Bio-RAD). […] The immune complexes were visualized by incubation with horseradish peroxidase-conjugated anti-rat or anti-rabbit secondary antibody (Amersham Biosciences). Immunoreactive bands were visualized by enhanced chemiluminescence (PerkinElmer Life Sciences).

[2] = test system: Gpr109a; settings: Taggart et al., 2005; cited from earlier work
[3] = WT and Gpr109a−/− BMDMs stimulated with LPS and ATP

Sequence of NLRP3 inflammasome (Q8R4B8 whole entry): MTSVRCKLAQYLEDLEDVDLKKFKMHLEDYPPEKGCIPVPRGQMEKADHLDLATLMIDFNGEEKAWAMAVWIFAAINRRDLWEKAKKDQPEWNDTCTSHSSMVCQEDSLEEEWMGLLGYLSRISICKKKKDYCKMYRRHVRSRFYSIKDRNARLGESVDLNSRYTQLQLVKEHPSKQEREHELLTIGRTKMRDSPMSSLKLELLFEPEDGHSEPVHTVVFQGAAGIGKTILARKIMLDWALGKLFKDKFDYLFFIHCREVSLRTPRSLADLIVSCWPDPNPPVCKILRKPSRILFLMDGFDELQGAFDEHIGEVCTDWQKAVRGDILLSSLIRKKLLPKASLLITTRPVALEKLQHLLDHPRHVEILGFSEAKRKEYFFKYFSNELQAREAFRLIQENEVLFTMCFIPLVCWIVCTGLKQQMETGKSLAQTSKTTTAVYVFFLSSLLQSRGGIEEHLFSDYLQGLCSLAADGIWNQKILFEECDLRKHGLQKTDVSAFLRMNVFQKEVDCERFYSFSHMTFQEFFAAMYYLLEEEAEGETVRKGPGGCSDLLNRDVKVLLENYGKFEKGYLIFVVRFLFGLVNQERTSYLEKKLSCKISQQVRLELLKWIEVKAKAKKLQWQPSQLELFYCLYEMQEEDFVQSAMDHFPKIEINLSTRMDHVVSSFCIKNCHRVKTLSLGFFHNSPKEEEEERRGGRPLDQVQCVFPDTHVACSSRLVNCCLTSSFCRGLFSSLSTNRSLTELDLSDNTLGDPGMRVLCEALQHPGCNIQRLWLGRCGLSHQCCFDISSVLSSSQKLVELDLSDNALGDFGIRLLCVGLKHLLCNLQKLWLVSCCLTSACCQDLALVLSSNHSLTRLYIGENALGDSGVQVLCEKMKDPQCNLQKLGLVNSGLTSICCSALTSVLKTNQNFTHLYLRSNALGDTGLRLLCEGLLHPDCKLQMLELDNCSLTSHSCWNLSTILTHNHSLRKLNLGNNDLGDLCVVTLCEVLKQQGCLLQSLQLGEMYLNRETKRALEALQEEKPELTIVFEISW

SMILES: CC(=O)O [acetate, reference compound]
- ATP-induced NLRP3 activation ([1]; 10 mM): did not affect

SMILES: CC(=O)CC(=O)O [acetoacetate, reference compound]
- ATP-induced NLRP3 activation ([1]; 10 mM): did not affect
- effect on the NLRP3 inflammasome ([1]; control and Gpr109a deficient BMDMs, LPS and ATP, 10 mM): neither butyrate nor acetoacetate affect

SMILES: NOCC(=O)O [aminoxyacetate, reference compound]
- effect on BHB's suppressive effects on ATP-induced NLRP3 inflammasome activation ([1]; LPS primed BMDMs, ATP): did not affect

SMILES: CC[C@H](C)[C@H](NC(=O)[C@H]([C@@H](C)CC)N(C)C(C)=O)C(=O)N[C@H](C(=O)N[C@@H](CC(C)C)C(=O)[C@@]1(C)CO1)[C@@H](C)O [epoxomicin, reference compound]
- effect on BHB's suppressive effects on ATP-induced NLRP3 inflammasome activation ([1]; LPS primed BMDMs, ATP): did not abrogate

SMILES: OO [hydrogen peroxide, reference compound]
- effect on BHB's suppressive effects on ATP-induced NLRP3 inflammasome activation ([1]; LPS primed BMDMs, ATP): did not prevent
- induction of caspase-1 cleavage by ROS damage ([1]; LPS primed BMDMs): not sufficient to induce

SMILES: C=C(C)[C@H]1Cc2c(ccc3c2O[C@@H]2COc4cc(OC)c(OC)cc4[C@@H]2C3=O)O1 [rotenone, reference compound]
- effect on BHB's suppressive effects on ATP-induced NLRP3 inflammasome activation ([1]; LPS primed BMDMs, ATP): did not prevent
- induction of caspase-1 cleavage by ROS damage ([1]; LPS primed BMDMs): not sufficient to induce

Second part, led by results:

- mimicking of BHB's anti-inflammasome effect by inhibition of glycolysis ([1]; LPS primed BMDMs, ATP, 2-deoxyglucose (1 mM)): did not mimic
SMILES: O=CC[C@@H](O)[C@H](O)[C@H](O)CO [2DG, 2-deoxyglucose, reference compound]

- effect on BHB's suppressive effects on ATP-induced NLRP3 inflammasome activation ([1]; LPS primed BMDMs, ATP): did not abrogate
SMILES: Cn1cnc(N)c2ncnc1-2 [3-methyladenine, reference compound]

- NLRP3 inflammasome activation (Nlrp3 induced caspase-1 activation) ([1]; BMDMs (FIG. 6E)): efficiently blocked
- requirement of Gpr109a to block NLRP3 [1, 3]: does not require
SMILES: C[C@H](O)CC(=O)O [(S)-BHB, (S)-3-hydroxybutyric acid]
- anti-inflammasome activity [1, 3]: retains anti-inflammasome activity similar to bioactive D-(BHB)
- binding to Gpr109a [2]: high affinity

- effect on BHB's suppressive effects on ATP-induced NLRP3 inflammasome activation ([1]; LPS primed BMDMs, ATP): did not abrogate
SMILES: N#C/C(=C\c1ccc(-c2cc(Cl)ccc2Cl)o1)C(=O)Nc1cccc2ncccc12 [AGK2, reference compound]

- caspase-1 activation in response to LPS and ATP ([1]; BMDMs, NAD+ (10 μM)): did not block
SMILES: NC(=O)c1ccc[n+]([C@@H]2O[C@H](COP(=O)([O-])OP(=O)(O)OC[C@H]3O[C@@H](n4cnc5c(N)ncnc54)[C@H](O)[C@@H]3O)[C@@H](O)[C@H]2O)c1 [NAD^+, reference compound]

- NLRP3 inflammasome activation with GPR109a ligand ([1]; BMDMs activated with LPS and ATP, niacin (1 mM)): did not block
SMILES: O=C(O)c1cccnc1 [niacin, reference compound]

- inflammasome activation with HDAC inhibitor ([1]; LPS primed and NLRP3 agonist treated macrophages, TSA (50 nM)): no effects
SMILES: CC(/C=C/C(=O)NO)=C\[C@@H](C)C(=O)c1ccc(N(C)C)cc1 [trichostatin A, reference compound]
